Measured values as given in US9447130B1, “Process for the preparation of dicycloplatin” (Syn-Nat Products Enterprise LLC, priority 2015, dated 2016).

What was measured:
[1] = water solubility of dicycloplatin; format: physicochemical; conditions: room temperature
From the text: (§1) Moreover, in additional polymorph studies of dicycloplatin, it was recognized that the use of shorter aliphatic alcohols (as reported in U.S. Pat. No. 6,699,901) such as methanol, ethanol, isopropanol and butanol led to a significant amount of carboplatin being left in the product because of disproportionation. […] Thus, recrystallization in water was not efficient and was difficult to scale up.

[2] = stability of dicycloplatin to heat / hot water (evaporation, slurry); format: physicochemical
Method: • 1) Dissolved 50.0 mg of carboplatin (135 μmol) in 2.8 mL of water in a 3-mL glass vial at RT. • 2) Added 19.4 mg of 1,1-cyclobutane dicarboxylic acid (135 μmol) into the same vial. • 3) Stirred the suspension at RT to obtain a clear solution. • 4) Transferred the clear solution to a 25-mL round-bottom flask and rotary evaporated at a temperature between 50° C. and 55° C. to obtain white crystal solid. • 5) Air-dried the solid to obtain a product.
as §1

[3] = cited from earlier work

Substance: dicycloplatin
- water solubility [1]: 40 mg/mL
- thermal stability during evaporation ([2]; evaporation step of the reported process (U.S. Pat. No. 6,699,901)): sensitive to high temperature
- stability of a slurry in hot water ([2]; slurry in hot water): partial hydrolysis
- recommended Phase II dosage ([3]; DCP-containing chemotherapy): 450 mg/m^2
- bioavailability and stability in vivo ([3]; in vivo, Chinese cancer patients): favorable
